From PubChem BioAssay (NCI) come the findings set out here.

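Interpolation was linear, between the two tested concentrations surrounding the appropriate level; five concentrations were tested over 48 hours in 96-well plates. TGI: total growth inhibition.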

Some test systems named below: MALME-3M melanoma; NCI-H460 lung; DLD-1 colon; HCT-116 colon; K-562 leukemia; XF 498 CNS; SK-MEL-5 melanoma; MCF7 breast; DMS 273 small cell lung; NCI-H522 lung; DMS 114 small cell lung; U251 CNS; SW-620 colon; SK-OV-3 ovarian; PC-3 prostate; MDA-MB-435; MDA-MB-231 breast; MDA-N; HS 578T breast; DU-145 prostate.
Test in all cases: NCI anticancer screen, dose series, 48 h

With `NCCCCCC(CCN)SCC1OC(n2cnc3c(N)ncnc32)C(O)C1O` (stereo unspecified), the TGI with MALME-3M melanoma was above 1500 µM; in the assay on NCI-H460 lung it was above 1500 µM; in the assay with DLD-1 colon, above 1500 µM; with HCT-116 colon it was above 1500 µM; in the assay on K-562 leukemia, above 1500 µM; in the assay on XF 498 CNS, above 15 µM. Also, the TGI is above 1500 µM in the assay with SK-MEL-5 melanoma; above 1500 µM in the assay with MCF7 breast; above 1090 µM in the assay with DMS 273 small cell lung; above 1500 µM in the assay with NCI-H522 lung; above 1500 µM with DMS 114 small cell lung; above 1500 µM with U251 CNS. The TGI in the assay with SW-620 colon and in the assay with SK-OV-3 ovarian was above 1500 µM in each case.

With `COC(=O)/C=C1\SC2(OC1=Nc1ccccc1)C1CC3CC(C1)CC2C3` (stereo unspecified), the TGI in the assay with PC-3 prostate, in the assay on NCI-H460 lung, in the assay on MDA-MB-435, in the assay with MDA-MB-231 breast, with HCT-116 colon and in the assay with K-562 leukemia was above 100 µM each time. For the same molecule, the TGI in the assay with SK-MEL-5 melanoma, in the assay with MCF7 breast, with MDA-N, in the assay with NCI-H522 lung, in the assay on HS 578T breast and in the assay on U251 CNS was above 100 µM throughout. The TGI with SW-620 colon and with SK-OV-3 ovarian was above 100 µM in each case.

For `O=C(O)C(Cc1cc(I)c(O)c(I)c1)C1CCCCC1` (stereo unspecified), the TGI in the assay with PC-3 prostate was 41.5 µM; in the assay with MALME-3M melanoma, above 100 µM; with DU-145 prostate, above 100 µM; in the assay on NCI-H460 lung, 46 µM; with MDA-MB-435 it was above 100 µM; in the assay with MDA-MB-231 breast, 72.5 µM. For the same molecule, the TGI was 88.7 µM in the assay on HCT-116 colon; above 100 µM with K-562 leukemia; 53.5 µM in the assay with SK-MEL-5 melanoma; above 100 µM in the assay with MDA-N; above 100 µM in the assay with NCI-H522 lung; above 100 µM with HS 578T breast. Moreover, the results for the TGI in the assay on U251 CNS and in the assay with SW-620 colon were 54.6 µM and above 100 µM, respectively.

Take `CCOc1ccc(/C=C2\N=C(c3ccccc3)OC2=O)cc1`: the TGI in the assay with PC-3 prostate, with NCI-H460 lung, with MDA-MB-435, in the assay with K-562 leukemia, in the assay on SK-MEL-5 melanoma and in the assay on MCF7 breast was above 100 µM in each case. Moreover, the TGI in the assay on NCI-H522 lung, in the assay on HS 578T breast, with U251 CNS, in the assay on SW-620 colon and in the assay with SK-OV-3 ovarian was above 100 µM in each case.

Regarding `O=C1c2cc(Br)ccc2-c2ccc3c4ccc5c6c(ccc(c7ccc1c2c73)c64)C(=O)c1cc(Br)ccc1-5`, the TGI in the assay with PC-3 prostate, with MALME-3M melanoma, with DU-145 prostate, with NCI-H460 lung, in the assay with MDA-MB-435 and in the assay with MDA-MB-231 breast was above 100 µM in each case. Also, the TGI in the assay with HCT-116 colon, in the assay with K-562 leukemia, with SK-MEL-5 melanoma, in the assay with MCF7 breast, with NCI-H522 lung and in the assay with HS 578T breast was above 100 µM in each case. The TGI in the assay on U251 CNS, in the assay on SW-620 colon and in the assay with SK-OV-3 ovarian was above 100 µM throughout.

Take `CN1C2CCC1/C(=C/c1cccc3c1OCO3)C(=O)/C2=C\c1cccc2c1OCO2`: the TGI in the assay on MALME-3M melanoma, in the assay with NCI-H460 lung, in the assay on DLD-1 colon, in the assay with HCT-116 colon, with XF 498 CNS and in the assay with SK-MEL-5 melanoma was above 100 µM each time. For the same molecule, the TGI is above 100 µM in the assay with DMS 273 small cell lung; above 100 µM with DMS 114 small cell lung; 63.4 µM in the assay on U251 CNS; above 100 µM in the assay with SW-620 colon; above 100 µM in the assay with SK-OV-3 ovarian.

With `CC(=O)CCC#Cc1ccccc1C(=O)C(C)=[N+]=[N-]`, the TGI in the assay with MALME-3M melanoma was 84.1 µM; in the assay on NCI-H460 lung it was above 100 µM; in the assay on DLD-1 colon it was above 100 µM; in the assay on HCT-116 colon it was 47.8 µM; with K-562 leukemia, above 100 µM; in the assay with XF 498 CNS, 89.3 µM. The TGI in the assay on SK-MEL-5 melanoma is 33.1 µM; with DMS 273 small cell lung it was 90.1 µM; with DMS 114 small cell lung it was 42 µM; in the assay on U251 CNS, above 100 µM; with SW-620 colon, above 100 µM; in the assay with SK-OV-3 ovarian, above 100 µM.

On to `CC(C)(C)[Si](C)(C)OCC1OC(n2cnc3c(N)ncnc32)C2OC(=S)OC12` (stereo unspecified), for which the TGI was above 100 µM with PC-3 prostate; 98.3 µM in the assay on MALME-3M melanoma; above 100 µM with DU-145 prostate; above 100 µM in the assay on NCI-H460 lung; 48.3 µM in the assay with MDA-MB-435; above 100 µM in the assay on MDA-MB-231 breast. Also, the TGI is above 100 µM with HCT-116 colon; above 100 µM with K-562 leukemia; 36.1 µM with SK-MEL-5 melanoma; 93.4 µM with MCF7 breast; 94 µM in the assay on MDA-N; above 100 µM with HS 578T breast. The TGI was 68.2 µM in the assay with U251 CNS, above 100 µM in the assay on SW-620 colon and 97 µM in the assay on SK-OV-3 ovarian.

Turning to `COc1ccc(-c2cc(N3CCN(c4ccc(Cl)cc4)CC3)c(C#N)c(=O)o2)cc1`, the TGI is 22.3 µM in the assay on MALME-3M melanoma; 28.9 µM in the assay with NCI-H460 lung; above 100 µM in the assay with DLD-1 colon; 32.7 µM in the assay with HCT-116 colon; 7.76 µM with XF 498 CNS; 31.3 µM in the assay on SK-MEL-5 melanoma. For the same molecule, the TGI with DMS 273 small cell lung is 34.4 µM; in the assay on DMS 114 small cell lung, 25.6 µM; in the assay on U251 CNS, 58.2 µM; with SW-620 colon it was above 100 µM.
